In patent publication US20260191933A1, “PHARMACEUTICAL COMBINATIONS AND USES THEREOF” (The University of Melbourne, priority 2022, published 2026):

Key:
[1] = system: insulin receptor signalling within the ARC (pAKT); test: Intranasal PZ6005: ARC pAKT +ve. cells after insulin; type: in vivo, C57BL/6J mice; conditions: both doses, 14-day intranasal administration
Description: (§1) Mice were injected intraperitoneally with vehicle (PBS) or insulin (3 mU/g, i.p., Actrapid, Nova Nordisk, Denmark) and mice were transcardially perfused (as described above) 15 min with 10% neutral buffered formalin. The brains were post-fixed for 16 h on a rocking platform at RT and then kept for two days in 30% sucrose in PBS to cryoprotect the tissue, before freezing on dry ice. 30 μm sections were cut in the coronal plane throughout the entire rostral-caudal extent of the hypothalamus. Sections were pre-treated for 10 mins in 0.3% glycine, washed in PBS-T and incubated for 10 min in 0.03% SDS. Sections were then blocked in 5% blocking buffer for 1 h at RT and incubated for 48 h with rabbit anti-p-AKT (Ser-473) (1:300; #4060, Cell Signaling Technology, Beverly, MA) in 1% blocking buffer. Sections were then incubated in 5% blocking buffer containing either goat anti-rabbit Alexa Fluor 647 (ab150083, Abcam, Cambridge, UK) or biotinylated goat anti-rabbit (BA-1000, Vector Laboratories, CA, no sodium azide in blocking buffer). […]

[2] = system: ARC CSPG-ECM; test: I.C.V. PZ6005 and/or S.C. liraglutide, 28-day treatment: ARC CSPG-ECM (WFA); type: in vivo, C57BL/6j mice; conditions: PZ6005 100 μg/animal I.C.V. every other day first 14 days; liraglutide 200 μg/kg/day S.C. 28 days
Description: (§2) All image quantification was performed in Image J (NIH) software (NIH, MA). Raw images underwent background subtraction using a rolling ball algorithm to minimize background and any potential variance in tissue autofluorescence. To quantify area and intensity of the CSPG-ECM within each brain region (ARC, VMH or RSG cortex) images were thresholded and binarized to create a region of interest (ROI) mask of only the CSPG-ECM. For each brain area, CSPG-ECM ROI area (μm^2) and intensity (sum of all pixel intensities within the ROI) was calculated. This process was automated to minimise bias and to account for differences in brain nuclei size across multiple images. Brain nuclei were defined in accordance with the Paxinos and Franklin mouse brain atlas (http://labs.gaidi.ca/mouse-brain-atlas/). The area and intensity of CSPG-ECM within each region was normalised to the respective control.

[3] = system: 12-week-HFHS-diet-fed obese mice; test: Intranasal PZ6005 in obese mice: body weight, tissue-specific adiposity, fat mass; type: in vivo, C57BL/6J mice; conditions: for body weight lost at the end of the experiment: day 14
Description: (§3) Metabolic measurements were undertaken in the Melbourne Mouse Metabolic Phenotyping Platform (The University of Melbourne, Australia). Glucose tolerance tests were performed on 6 h fasted conscious mice respectively by injecting D-glucose (2 mg/g of lean body mass and 1 mg/g lean mass for db/db and HFHS+STZ mice) into the peritoneal cavity and measuring glucose in tail blood immediately before and at 15, 30, 45, 60, 90 and 120 min after injection using an Accu-Check glucometer (Roche, Germany). The areas under glucose excursion curves were determined and expressed as mmol/l×min. Fasted (12 h fast) plasma insulin or glucose levels were determined using a Rat/Mouse Insulin ELISA (EZRMI-13K, Merck Millipore, CA) or an Accu-Check glucometer respectively. The HOMA-IR was calculated using the equation [(glucose×insulin)/405]. Adiposity was measured using TD-NMR minispec (Bruker Optics Inc., Billerica, MA).

[4] = system: CSPG-ECM (neurofibrosis); test: I.C.V. fluorosamine in obese mice: CSPG-ECM expression (WFA immunostaining); type: in vivo, C57BL/6J mice
Description: as §2
Under isoflurane anaesthetic 12-week HFHS fed C57BL/6J or AgRP-Cas9 mice were implanted stereotaxically with guide cannulas into the right lateral ventricle (0.2 mm posterior, 1.0 mm lateral from bregma). Guide cannula was positioned 1.3 mm above the injection site (1 mm ventral to the surface of the skull). AgRP-Cas9 mice were treated with either AAV-gScrambled or AAV-gIR and underwent guide cannula placement 7 days post AAV administration. Mice were administered I.C.V. vehicle (ddH2O), fluorosamine (100 μg/animal/day or 250 μgl/animal/day) in a volume of 2 μl/animal and all compounds were delivered approximately 1 h before lights off (7 pm).

[5] = system: 12-week-HFHS-diet-fed obese mice; test: Intranasal PZ6005 in obese mice: I.P. GTT, ITT, fasting glucose; type: in vivo, C57BL/6J mice
Description: as §3

[6] = system: ARC insulin receptor signalling (pAKT); test: I.C.V. PZ6005 and/or S.C. liraglutide: ARC pAKT +ve. cells after insulin; type: in vivo, C57BL/6j mice; conditions: after 28-day treatment; compared with liraglutide alone group
Description: as §1

[7] = system: ARC CSPG-ECM; test: Intranasal PZ6005 in obese mice: ARC CSPG-ECM expression (WFA immunostaining); type: in vivo, C57BL/6J mice; conditions: for ARC neurofibrosis / area and intensity of ARC CSPG-ECM: obese mice, intranasal 14 days, 1 or 5 mg/animal/day
Description: as §2

[8] = system: GLP-1 receptor signalling (pERK) in the ARC; test: I.C.V. PZ6005 and/or S.C. liraglutide: ARC pERK +ve. cells after liraglutide; type: in vivo, C57BL/6j mice; conditions: after 28-day treatment; compared to controls and liraglutide alone
[9] = intranasal 1 mg treatment, 14 days
[10] = intranasal 1 mg/animal/day, 14 days

## CC(=O)NC1C(OC(C)=O)OC(COC(C)=O)[C@@H](F)C1OC(C)=O (some centres unmarked) [PZ6005, per-O-acetylated-4-F-N-acetylglucosamine]
[1]
  ARC pAKT +ve. cells: robust increase
[2]
  ARC CSPG-ECM intensity reduced by, compared with the mice receiving liraglutide: 22.65±7.851%
  CSPG-ECM area lower than liraglutide group: 31.56±3.73%
[3]; diet-induced obese mice, intranasal 14 days
  whole-body metabolic improvements observed with intracerebroventricular delivery: recapitulated
[3]; [9]
  mass of epiWAT, BAT and liver: decreased
  post-treatment fat mass decreased by, compared to the pre-treatment mass: 12.59±2.29%
[3]; intranasal 1 mg treatment
  body weight lost at the end of the experiment: 16.32±1.41%
[3]; intranasal 1 mg/animal/day
  day from which weight was robustly decreased: 7 days
[3]; intranasal 5 mg treatment, 14 days
  post-treatment fat mass diminished by, compared to the pre-treatment mass: 23.21±9.27%
[3]; intranasal 5 mg/animal/day
  day from which weight was robustly decreased: 3 days
[3]; intranasal highest dose (5 mg)
  body weight lost at the end of the experiment: 6.36±0.88%
[3]; intranasal highest dose, 14 days
  tissue mass: remarkedly reduced
[4]; I.C.V., at the highest dose
  CSPG-ECM expression in the habenula: only partially attenuated
[4]; obese mice, I.C.V. daily for 10 days
  neurofibrosis within the ARC (WFA immunostaining): significantly attenuated
[4]; obese mice, I.C.V. for 10 days
  CSPG-ECM in other brain areas such as the RSG cortex: did not reduce
[5]; both doses of intranasal treatment
  fasting (12 hrs) glucose level: Reduction
[5]; intranasal 1 or 5 mg/animal/day, 4 hrs fasting
  insulin sensitivity (I.P. ITT): enhanced insulin sensitivity
[5]; intranasal 1 or 5 mg/animal/day, 6 hrs fasting, vs control littermates
  glucose tolerance (I.P. GTT): better glucose tolerance
[6]
  ARC pAKT +ve. cells: more ARC pAKT +ve. cells
[7]; [10]
  CSPG-ECM area lower than the controls: 13.54±1.03%
  CSPG-ECM intensity decreased by: 15.94±7.17%
[7]; intranasal 5 mg/animal/day (highest dose), 14 days
  CSPG-ECM intensity reduced by: 30.16±1.52%
[7]; intranasal 5 mg/animal/day, 14 days
  CSPG-ECM area lower than the controls: 13.59±4.09%
[7]
  ARC neurofibrosis / area and intensity of ARC CSPG-ECM: robustly diminished
[7]; listed as fluorosamine
  ARC neurofibrosis / area and intensity of ARC CSPG-ECM: successfully attenuated
[8]
  ARC pERK +ve. cells: markedly increased
